Here are results for 4 molecules from US20250093263A1, “FRET-BASED ASSAYS” (The General Hospital Corporation, priority 2021, published 2025).

Test [1] concerns the target HDAC1-HaloTag in HEK293T cells (Homo sapiens, UniProt Q13547). Nature of the test: Cellular TR-FRET target engagement assay, HDAC1-HaloTag in HEK293T cells. The settings on record: HEK-293T, read-out: Cellular TR-FRET assay SAHA-NCT 1 μM EC50 column: % @ 100. The test is classed as cell-based. (Time-resolved FRET reads energy transfer from a long-lived donor to a nearby acceptor.)
Experimental: Separately, stock solutions of plasmid DNA (pFC14A-HDAC1-HaloTag; 16 μg/mL) and PEI-MAX (48 μg/mL) were prepared in PBS such that the final volume of each stock solution was 1:20 of the volume of suspension cells in culture media (1:3 w/w DNA:PEI-MAX). The solutions were thoroughly mixed, then the DNA solution was added slowly to the PEI solution and the resulting transfection cocktail (1:10 volume of suspension) was incubated for 20 min at room temperature. The transfection cocktail was added to the cell suspension (final concentrations: 0.8 μg/mL DNA, 2.4 μg/mL PEI-MAX, 350,000 cells/mL) and the 12 mL suspension was added to a 10 cm dish. Cells were grown for 24 h at 37° C. and 5% CO2.
After, media was aspirated and cells were quickly washed with 12 mL phenol red-free DMEM+10% FBS, followed by one 30 min wash at 37° C. and 5% CO2. Cells were washed with PBS, trypsinized, counted, and pelleted.

The target of test [2] is T1, BRD4(BD1) (Homo sapiens, UniProt O60885).
T1 construct: validated for its applicability with individual recombinant bromodomains BRD4(BD1) and BRD4(BD2); purchased BPS Biosciences, Inc 31040
In words: TR-FRET saturation binding of JQ1-FITC, BRD4(BD1). The settings on record: 0.5 nM GST-BRD4(BD1), 2 nM CoraFluor-1-labeled anti-GST VHH; read-out: KD,app BRD4(BD1). As to the method:
(§1) TR-FRET measurements: unless otherwise noted, experiments were performed in white, 384-well microtiter plates (Corning 3572) in 30 μL assay volume. […] The 490/10 and 520/10 emission channels were acquired with a 50% mirror and a dichroic 510 mirror, respectively, using independently optimized detector gain settings unless specified otherwise. The TR-FRET ratio was taken as the 520/490 nm intensity ratio on a per-well basis.
(§2) Determination of apparent equilibrium dissociation constant (KD,app) of JQ1-FITC toward individual recombinant bromodomains and endogenous BRD4 in MCF7 lysate: recombinant BRD4(BD1) and BRD4(BD2) were purchased from BPS Biosciences, Inc and Epicypher, Inc (GST-BRD4(BD1), 31040; GST-BRD4(BD2), 15-0013, respectively). Recombinant bromodomains were diluted to 0.5 nM in assay buffer (25 mM HEPES, 150 mM NaCl, 0.5 mg/mL BSA, 0.005% TWEEN-20, pH 7.5) with 2 nM CoraFluor-1-labeled anti-GST VHH, then JQ1-FITC was added in serial dilution (1:1.6 titration, 15-point, cmax=100 nM) using a D300 digital dispenser (Hewlett-Packard) and allowed to equilibrate for 2 h at room temperature before TR-FRET measurements were taken. Nonspecific signal was determined with 50 μM JQ1-Acid, and data were fitted to a One Site—Specific Binding model in Prism 9.

The target in test [3] is T2, BRD4(BD2) (Homo sapiens, UniProt O60885).
T2 construct: validated for its applicability with individual recombinant bromodomains BRD4(BD1) and BRD4(BD2); purchased Epicypher, Inc 15-0013
In words: TR-FRET saturation binding of JQ1-FITC, BRD4(BD2). Conditions: 0.5 nM GST-BRD4(BD2), 2 nM CoraFluor-1-labeled anti-GST VHH; read-out: KD,app BRD4(BD2). As to the method:
as §1, §2

Test [4] has as its system HsmPheRS (human mitochondrial PheRS). In words: TR-FRET titration of tracer MAT588, HsmPheRS. The class given is binding.
For test [5], the target named is T3, HsmPheRS (human mitochondrial PheRS) (Homo sapiens, UniProt O95363).
T3 construct: rows headed: HsmPheRS KD; other: absence of substrates, titrating; human mitochondrial PheRS (HisHalo-HsmPheRS); fused on or other part: C-terminal HaloTag, HRV-3C site and His9 tag; the CoraFluor-1 terbium donor is attached through the HaloTag or by direct Pfp labelling
T3 sequence (O95363 42-357 limits assumed): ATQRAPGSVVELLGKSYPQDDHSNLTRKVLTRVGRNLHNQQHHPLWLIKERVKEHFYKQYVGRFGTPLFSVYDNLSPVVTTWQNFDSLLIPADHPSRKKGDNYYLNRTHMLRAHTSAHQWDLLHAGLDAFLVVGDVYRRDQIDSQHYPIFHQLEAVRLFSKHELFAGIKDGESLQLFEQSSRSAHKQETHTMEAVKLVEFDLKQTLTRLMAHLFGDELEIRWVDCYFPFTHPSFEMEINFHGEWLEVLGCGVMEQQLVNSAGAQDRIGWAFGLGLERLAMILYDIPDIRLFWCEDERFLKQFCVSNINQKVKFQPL
Nature of the test: TR-FRET titration of tracer MAT588, HsmPheRS. The test is classed as binding. Conditions: absence of substrates, titrating.

In test [6] the target is T4, HscPheRS (human cytoplasmic PheRS) (Homo sapiens, UniProt Q9Y285).
T4 construct: HisHalo-HscPheRS; alpha subunit residues 1-508; beta subunit residues 1-589; made in house; host or cells: E. coli
T4 sequence (Q9Y285 1-508): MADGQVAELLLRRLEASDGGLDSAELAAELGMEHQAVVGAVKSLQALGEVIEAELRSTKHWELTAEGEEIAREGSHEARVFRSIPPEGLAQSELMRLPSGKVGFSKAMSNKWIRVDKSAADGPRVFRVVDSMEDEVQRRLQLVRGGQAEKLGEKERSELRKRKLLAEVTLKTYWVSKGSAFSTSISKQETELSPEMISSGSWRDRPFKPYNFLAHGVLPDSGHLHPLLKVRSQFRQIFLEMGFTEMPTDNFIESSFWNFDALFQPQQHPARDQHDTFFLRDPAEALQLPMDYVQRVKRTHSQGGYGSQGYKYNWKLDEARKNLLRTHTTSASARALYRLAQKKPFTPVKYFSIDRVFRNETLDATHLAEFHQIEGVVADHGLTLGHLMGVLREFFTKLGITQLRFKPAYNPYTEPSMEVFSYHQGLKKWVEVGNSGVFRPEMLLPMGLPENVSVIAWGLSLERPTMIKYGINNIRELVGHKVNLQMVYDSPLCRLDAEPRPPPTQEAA
T4 sequence (Q9NSD9 1-589 partner): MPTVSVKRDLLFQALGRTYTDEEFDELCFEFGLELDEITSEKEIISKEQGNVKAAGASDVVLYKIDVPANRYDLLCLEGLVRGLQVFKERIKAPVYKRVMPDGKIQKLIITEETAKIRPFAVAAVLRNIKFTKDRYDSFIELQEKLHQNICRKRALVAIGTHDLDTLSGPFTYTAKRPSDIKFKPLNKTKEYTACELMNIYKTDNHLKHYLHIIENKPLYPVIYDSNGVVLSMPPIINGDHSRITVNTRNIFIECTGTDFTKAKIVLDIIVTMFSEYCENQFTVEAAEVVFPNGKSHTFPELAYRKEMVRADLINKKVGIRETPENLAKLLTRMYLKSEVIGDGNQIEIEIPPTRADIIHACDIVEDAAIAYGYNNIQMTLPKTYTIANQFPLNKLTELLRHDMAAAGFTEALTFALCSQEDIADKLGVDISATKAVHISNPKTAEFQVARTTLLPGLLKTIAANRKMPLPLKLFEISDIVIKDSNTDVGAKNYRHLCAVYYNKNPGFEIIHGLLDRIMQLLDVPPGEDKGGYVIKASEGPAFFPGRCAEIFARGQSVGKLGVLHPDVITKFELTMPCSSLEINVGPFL
In words: TR-FRET titration of tracer MAT588, HscPheRS. The test is classed as binding. The settings on record: absence of substrates.

In test [7] the target is T5, HDAC1 Recombinant (Homo sapiens, UniProt Q13547).
T5 construct: purchased BPS Bioscience Inc 50051
T5 sequence (Q13547 whole entry): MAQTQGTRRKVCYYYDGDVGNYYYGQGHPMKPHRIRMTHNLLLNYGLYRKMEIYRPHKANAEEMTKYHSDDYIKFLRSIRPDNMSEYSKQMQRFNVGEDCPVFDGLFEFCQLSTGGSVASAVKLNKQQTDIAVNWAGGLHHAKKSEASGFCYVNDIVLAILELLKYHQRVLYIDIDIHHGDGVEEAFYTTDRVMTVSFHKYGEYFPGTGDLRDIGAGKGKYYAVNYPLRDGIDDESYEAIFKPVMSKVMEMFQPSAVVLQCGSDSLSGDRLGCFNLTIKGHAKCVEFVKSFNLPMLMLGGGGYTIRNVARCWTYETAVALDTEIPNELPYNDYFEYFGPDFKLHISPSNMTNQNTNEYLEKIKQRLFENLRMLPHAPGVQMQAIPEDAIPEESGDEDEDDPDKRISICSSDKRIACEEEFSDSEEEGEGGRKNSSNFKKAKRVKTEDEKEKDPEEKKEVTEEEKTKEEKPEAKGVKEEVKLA
In words: HDAC1 enzymatic activity assay with recombinant protein. The class given is biochemical. The settings on record: 5 nM HDAC1, 18 μM MAZ1600 substrate (3 × KM), 3 h incubation.
Experimental: 7-Amino-4-methyl coumarin fluorescence was measured on a Tecan SPARK plate reader: 350/20 nm excitation, 460/10 nm emission.

Test [8] concerns the target HDAC1-HaloTag (Homo sapiens, UniProt Q13547).
Test [9] concerns the target T5, HDAC1 Recombinant. In words: TR-FRET assay with recombinant HDAC1. Conditions: 5 nM HDAC1, 2.5 nM Tb-Anti-6xHis IgG, 20 nM SAHA-NCT, 3 h. The class given is binding.

In general, IC50 refers to the concentration needed to halve the response being measured.

Chain of HDAC1-HaloTag in HEK293T cells (Q13547 whole entry): as above
Chain of HDAC1-HaloTag (Q13547 whole entry): as above

Turning to `CC(=O)Nc1ccc(C(=O)Nc2ccccc2N)cc1` [CI-994], in test [1], the inhibition at 100 µM was under 5%.
In the case of `Cc1sc2c(c1C)C(c1ccc(Cl)cc1)=NC(CC(=O)NCCCOCCOCCOCCCNC(=S)Nc1ccc(-c3c4ccc(=O)cc-4oc4cc(O)ccc34)c(C(=O)O)c1)c1nnc(C)n1-2` (stereo not shown) [JQ1-FITC, 5-(3-(1-(4-(4-chlorophenyl)-2,3,9-trimethyl-6H-thieno[3,2-f][1,2,4]triazolo[4,3-a][1,4]diazepin-6-yl)-2-oxo-7,10,13-trioxa-3-azahexadecan-16-y)thioureido)-2-(6-hydroxy-3-oxo-3H-xanthen-9-yl)benzoic acid], the Kd in [2] was 6.5 ± 1.1 nM; in test [3] it was 5.8 ± 1.5 nM.
With `Nc1ncnc2c1ncn2[C@@H]1O[C@H](CN(CCCCCCOCCOCCNC(=O)c2ccc(C(=O)O)c(-c3c4ccc(=O)cc-4oc4cc(O)ccc34)c2)S(=O)(=O)NC(=O)[C@@H](N)Cc2ccccc2)[C@@H](O)[C@H]1O` [MAT588, 4-((2-(2-((6-((N-(L-phenylalanyl)sulfamoyl)(((2R,3S,4R,5R)-5-(6-amino-9H-purin-9-yl)-3,4-dihydroxytetrahydrofuran-2-yl)methyl)amino)hexyl)oxy)ethoxy)ethyl)carbamoyl)-2-(6-hydroxy-3-oxo-3H-xanthen-9-yl)benzoic acid], the “selectivity for HsmPheRS over HscPheRS” value in [4] is reported as > 1,000 fold. Also, the Kd in test [5] was under 10 nM; in test [6], over 10000 nM.
Consider `O=C(CCCCCCC(=O)Nc1ccc(CNC(=O)c2ccc(C(=O)O)c(C3=c4cc5c6c(c4Oc4c3cc3c7c4CCCN7CCCC3)CCC[N+]=6CCCC5)c2)cc1)NO` [SAHA-NCT], for which the IC50 in test [7] was 8 nM. Further, the Kd in test [7] was found to be 2 nM; in test [8], 9 nM; in test [9], 9 nM.
